Measurements taken from patent US10975077B2 (Novira Therapeutics, Inc., priority 2016, dated 2021).
pEC50: −log10 of the molar value.

System: HBV (encapsidated HBV DNA, HepG2.2.15 cells)
Experiment: HBV replication inhibition assay, BDNA assay in HepG2.2.15 cells
Type: cell-based
Description: HBV replication inhibition by the disclosed compounds were determined in cells infected or transfected with HBV, or cells with stably integrated HBV, such as HepG2.2.15 cells (Sells et al. 1987). In this example, HepG2.2.15 cells were maintained in cell culture medium containing 10% fetal bovine serum (FBS), Geneticin, L-glutamine, penicillin and streptomycin. HepG2.2.15 cells were seeded in 96-well plates at a density of 40,000 cells/well and were treated with serially diluted compounds at a final DMSO concentration of 0.5% either alone or in combination by adding drugs in a checker box format. Cells were incubated with compounds for three days, after which medium was removed and fresh medium containing compounds was added to cells and incubated for another three days. At day 6, supernatant was removed and treated with DNase at 37° C. for 60 minutes, followed by enzyme inactivation at 75° C. for 15 minutes. Encapsidated HBV DNA was released from the virions and covalently linked HBV polymerase by incubating in lysis buffer (Affymetrix QS0010) containing 2.5 μg proteinase K at 50° C. for 40 minutes. HBV DNA was denatured by addition of 0.2 M NaOH and detected using a branched DNA (BDNA) QuantiGene assay kit according to manufacturer recommendation (Affymetrix). HBV DNA levels were also quantified using qPCR, based on amplification of encapsidated HBV DNA extraction with QuickExtraction Solution (Epicentre Biotechnologies) and amplification of HBV DNA using HBV specific PCR probes that can hybridize to HBV DNA and a fluorescently labeled probe for quantitation. In addition, cell viability of HepG2.2.15 cells incubated with test compounds alone or in combination was determined by using CellTitre-Glo reagent according to the manufacturer protocol (Promega). The mean background signal from wells containing only culture medium was subtracted from all other samples, and percent inhibition at each compound concentration was calculated by normalizing to signals from HepG2.2.15 cells treated with 0.5% DMSO using equation E1. % inhibition=(DMSOave−Xi)/DMSOave×100% E1: where DMSOave is the mean signal calculated from the wells that were treated with DMSO control (0% inhibition control) and Xi is the signal measured from the individual wells. EC50 values, effective concentrations that achieved 50% inhibitory effect, were determined by non-linear fitting using Graphpad Prism software (San Diego, Calif.) and equation E2: Y=Y min+(Y max −Y min)/(1+10(Log EC50−X)×HillSlope) E2: […]
where Y represents percent inhibition values and X represents the logarithm of compound concentrations.
Selected disclosed compounds were assayed in the HBV replication assay (BDNA assay), as described above and a representative group of these active compounds is shown in Table 6.

[1] = Hepatitis B virus, HepG2.2.15, Activity in BDNA-assay

CN1CCC(C(=O)O)n2nc3c(c2C1=O)CN(C(=O)Nc1ccc(F)c(Cl)c1)CC3 (stereo not drawn) [Compound 113, 2-((3-chloro-4-fluorophenyl)carbamoyl)-10-methyl-11-oxo-1,3,4,7,8,9,10,11-octahydro-2H-pyrido[4′,3′:3,4]pyrazolo[1,5-a][1,4]diazepine-7-carboxylic acid]
pEC50 [1]: < 6.00

CCC(O)C1CN(C)C(=O)c2c3c(nn2C1)CCN(C(=O)Nc1ccc(F)c(C#N)c1)C3 (single isomer, unassigned) [Compound 097_E1, (R*)—N-(3-cyano-4-fluorophenyl)-8-((S*)-1-hydroxypropyl)-10-methyl-11-oxo-1,3,4,7,8,9,10,11-octahydro-2H-pyrido[4′,3′:3,4]pyrazolo[1,5-a][1,4]diazepine-2-carboxamide]
pEC50 (Activity in BDNA-assay): 7.00 to 9.00

CN1CC(C(O)C2CC2)Cn2nc3c(c2C1=O)CN(C(=O)Nc1ccc(F)c(Cl)c1)CC3 (stereo not drawn) [Compound 036]
pEC50 [1]: 7.00 to 9.00

CCC(O)C1CN(C)C(=O)c2c3c(nn2C1)CCN(C(=O)Nc1ccc(F)c(C#N)c1F)C3 (single isomer, unassigned) [Compound 098_E2, (S*)—N-(3-cyano-2,4-difluorophenyl)-8-((R*)-1-hydroxypropyl)-10-methyl-11-oxo-1,3,4,7,8,9,10,11-octahydro-2H-pyrido[4′,3′:3,4]pyrazolo[1,5-a][1,4]diazepine-2-carboxamide]
pEC50 (Activity in BDNA-assay): 6.00 to 6.30

COC1CN(C)C(=O)c2c3c(nn2C1)CCN(C(=O)Nc1ccc(F)c(Cl)c1)C3 (single isomer, unassigned) [Compound 016B, (R*)—N-(3-chloro-4-fluorophenyl)-8-methoxy-10-methyl-11-oxo-3,4,8,9,10,11-hexahydro-1H-pyrido[4′,3′:3,4]pyrazolo[1,5-a][1,4]diazepine-2 (7H)-carboxamide]
pEC50 [1]: 7.00 to 9.00

CN1CC(CNCC(F)F)Cn2nc3c(c2C1=O)CN(C(=O)Nc1ccc(F)c(C#N)c1F)CC3 (single isomer, unassigned) [Compound 127_E2, (S*)—N-(3-cyano-2,4-difluorophenyl)-8-(((2,2-difluoroethyl)amino)methyl)-10-methyl-11-oxo-1,3,4,7,8,9,10,11-octahydro-2H-pyrido[4′,3′:3,4]pyrazolo[1,5-a][1,4]diazepine-2-carboxamide]
pEC50 (Activity in BDNA-assay): 7.00 to 9.00

CN1CC(N(C)C)Cn2nc3c(c2C1=O)CN(C(=O)Nc1ccc(F)c(Cl)c1)CC3 (stereo not drawn) [Compound 020, N-(3-chloro-4-fluorophenyl)-8-(dimethylamino)-10-methyl-11-oxo-1,3,4,7,8,9,10,11-octahydro-2H-pyrido[4′,3′:3,4]pyrazolo[1,5-a][1,4]diazepine-2-carboxamide]
pEC50 [1]: 7.00 to 9.00

C=CC(O)C1CN(C)C(=O)c2c3c(nn2C1)CC(C)N(C(=O)Nc1ccc(F)c(C#N)c1)C3 (single isomer, unassigned) [Compound 123_D1, (3R,8S*)—N-(3-cyano-4-fluorophenyl)-8-((R*)-1-hydroxyallyl)-3,10-dimethyl-11-oxo-1,3,4,7,8,9,10,11-octahydro-2H-pyrido[4′,3′:3,4]pyrazolo[1,5-a][1,4]diazepine-2-carboxamide]
pEC50 (Activity in BDNA-assay): 7.00 to 9.00

C[C@@H]1Cc2nn3c(c2CN1C(=O)Nc1ccc(F)c(C#N)c1)C(=O)N(C)CC(CO)C3 (single isomer, unassigned) [Compound 087_D2, (3R,8R*)—N-(3-cyano-4-fluorophenyl)-8-(hydroxymethyl)-3,10-dimethyl-11-oxo-1,3,4,7,8,9,10,11-octahydro-2H-pyrido[4′,3′:3,4]pyrazolo[1,5-a][1,4]diazepine-2-carboxamide]
pEC50 (Activity in BDNA-assay): 7.00 to 9.00

CCC(O)C1CN(C)C(=O)c2c3c(nn2C1)CCN(C(=O)Nc1ccc(F)c(C#N)c1F)C3 (single isomer, unassigned) [Compound 098_E3, (S*)—N-(3-cyano-2,4-difluorophenyl)-8-((S*)-1-hydroxypropyl)-10-methyl-11-oxo-1,3,4,7,8,9,10,11-octahydro-2H-pyrido[4′,3′:3,4]pyrazolo[1,5-a][1,4]diazepine-2-carboxamide]
pEC50 (Activity in BDNA-assay): 6.30 to 7.00

CN1CC(CNCC(F)(F)F)Cn2nc3c(c2C1=O)CN(C(=O)Nc1ccc(F)c(C#N)c1)CC3 (stereo not drawn) [Compound 120, N-(3-cyano-4-fluorophenyl)-10-methyl-11-oxo-8-(((2,2,2-trifluoroethyl)amino)methyl)-1,3,4,7,8,9,10,11-octahydro-2H-pyrido[4′,3′:3,4]pyrazolo [1,5-a][1,4]diazepine-2-carboxamide]
pEC50 [1]: 7.00 to 9.00

CN1CC(C(C)(C)O)Cn2nc3c(c2C1=O)CN(C(=O)Nc1ccc(F)c(Cl)c1)CC3 (stereo not drawn) [Compound 033, N-(3-chloro-4-fluorophenyl)-8-(2-hydroxypropan-2-yl)-10-methyl-11-oxo-3,4,8,9,10,11-hexahydro-1H-pyrido[4′,3′:3,4]pyrazolo[1,5-a][1,4]diazepine-2 (7H)-carboxamide]
pEC50 [1]: 7.00 to 9.00

CN1CC(F)Cn2nc3c(c2C1=O)CN(C(=O)Nc1ccc(F)c(Cl)c1)CC3 (stereo not drawn) [Compound 006, N-(3-chloro-4-fluorophenyl)-8-fluoro-10-methyl-11-oxo-1,3,4,7,8,9,10,11-octahydro-2H-pyrido[4′,3′:3,4]pyrazolo[1,5-a][1,4]diazepine-2-carboxamide]
pEC50 [1]: 7.00 to 9.00

CN1CC(N2CCC2)Cn2nc3c(c2C1=O)CN(C(=O)Nc1ccc(F)c(Cl)c1)CC3 (stereo not drawn) [Compound 023, 8-(azetidin-1-yl)-N-(3-chloro-4-fluorophenyl)-10-methyl-11-oxo-1,3,4,7,8,9,10,11-octahydro-2H-pyrido[4′,3′:3,4]pyrazolo[1,5-a][1,4]diazepine-2-carboxamide]
pEC50 [1]: 7.00 to 9.00

COC(=O)CC1CN(C)C(=O)c2c3c(nn2C1)CCN(C(=O)Nc1ccc(F)c(Cl)c1)C3 (stereo not drawn) [Compound 028, methyl 2-(2-((3-chloro-4-fluorophenyl)carbamoyl)-10-methyl-11-oxo-1,3,4,7,8,9,10,11-octahydro-2H-pyrido[4′,3′:3,4]pyrazolo[1,5-a][1,4]1diazepin-8-yl)acetate]
pEC50 [1]: 6.30 to 7.00

C[C@@H]1Cc2nn3c(c2CN1C(=O)Nc1ccc(F)c(C#N)c1)C(=O)N(C)CC1(CC(O)C1)C3 (stereo partly drawn) [Compound 141, (R)-N-(3-Cyano-4-fluorophenyl)-3-hydroxy-3′,10′-dimethyl-11′-oxo-1′,3′,4′,9′,10′,11′-hexahydro-2′H,7′H-spiro[cyclobutane-1,8′-pyrido[4′,3′:3,4]pyrazolo[1,5-a][1,4]diazepine]-2′-carboxamide]
pEC50 [1]: 7.00 to 9.00

C[C@@H]1Cc2nn3c(c2CN1C(=O)Nc1ccc(F)c(C#N)c1)C(=O)N(C)CC(CO)C3 (single isomer, unassigned) [Compound 087_D1, (3R,8S*)—N-(3-cyano-4-fluorophenyl)-8-(hydroxymethyl)-3,10-dimethyl-11-oxo-1,3,4,7,8,9,10,11-octahydro-2H-pyrido[4′,3′:3,4]pyrazolo[1,5-a][1,4]diazepine-2-carboxamide]
pEC50 [1]: 7.00 to 9.00

C=CC(O)C1CN(C)C(=O)c2c3c(nn2C1)CC(C)N(C(=O)Nc1ccc(F)c(Br)c1)C3 [Compound 124_D1, (3R,8S*)—N-(3-bromo-4-fluorophenyl)-8-((R*)-1-hydroxyallyl)-3,10-dimethyl-11-oxo-1,3,4,7,8,9,10,11-octahydro-2H-pyrido[4′,3′:3,4]pyrazolo[1,5-a][1,4]diazepine-2-carboxamide]
pEC50 [1]: 7.00 to 9.00

CC1CN(C)C(=O)c2c3c(nn2C1)C[C@@H](C)N(C(=O)Nc1ccc(F)c(Cl)c1)C3 (single isomer, unassigned) [Compound 080_D1, (3R,8S*)—N-(3-chloro-4-fluorophenyl)-3,8,10-trimethyl-11-oxo-3,4,8,9,10,11-hexahydro-1H-pyrido[4′,3′,3,4]pyrazolo[1,5-a][1,4] diazepine-2 (7H)-carboxamide]
pEC50 [1]: 7.00 to 9.00

CCC(O)C1CN(C)C(=O)c2c3c(nn2C1)CCN(C(=O)Nc1ccc(F)c(C(F)(F)F)c1)C3 (single isomer, unassigned) [Compound 099_E2, (S*)—N-(4-fluoro-3-(trifluoromethyl)phenyl)-8-((R*)-1-hydroxypropyl)-10-methyl-11-oxo-1,3,4,7,8,9,10,11-octahydro-2H-pyrido[4′,3′:3,4]pyrazolo[1,5-a][1,4]diazepine-2-carboxamide]
pEC50 (Activity in BDNA-assay): 6.30 to 7.00

C[C@@H]1Cc2nn3c(c2CN1C(=O)Nc1ccc(F)c(C#N)c1)C(=O)N(C)[C@H](COCC(F)F)C3 [Compound 150, (3R,8S)-N-(3-cyano-4-fluorophenyl)-8-((2,2-difluoroethoxy)methyl)-3,9-dimethyl-10-oxo-3,4,7,8,9,10-hexahydropyrido[4′,3′:3,4]pyrazolo[1,5-a]pyrazine-2(1H)-carboxamide]
pEC50 [1]: 7.00 to 9.00
